Test results taken from article PMC3959874 (European journal of dermatology : EJD, 2013).
Read-outs that look alike come from different tables or passages of the source.

Legend:
[1] = target: CYP450, 1A2 (Homo sapiens, UniProt P05177); test: Cytochrome P450 enzyme assay; format: in vitro ADME; conditions: 10 μM; 37 °C, 30 min
[2] = target: CYP450, 3A4 (Homo sapiens, UniProt P08684); test: Cytochrome P450 enzyme assay; format: in vitro ADME; conditions: 10 μM; 37 °C, 30 min
[3] = target: Adenosine A1 (Homo sapiens, UniProt P30542); test: Radioligand binding assay; conditions: 10 μM; 25 °C, 90 min
[4] = target: Adenosine A2A (Homo sapiens, UniProt P29274); test: Radioligand binding assay; conditions: 10 μM; 25 °C, 90 min
[5] = target: Adrenergic a1B (Rattus norvegicus, UniProt P15823); test: Radioligand binding assay; conditions: 10 μM; 25 °C, 60 min
[6] = target: Adrenergic β2 (Homo sapiens, UniProt P07550); test: Radioligand binding assay; conditions: 10 μM; 25 °C, 60 min
[7] = target: Bradykinin B1 (Homo sapiens, UniProt P46663); test: Radioligand binding assay; conditions: 10 μM; 25 °C, 60 min
[8] = tested on: Calcium Channel L-Type, Benzothiazepine; test: Radioligand binding assay; parameters: species or system rat; conditions: 10 μM; 4 °C, 180 min
[9] = target: Dopamine D24 (Homo sapiens, UniProt P14416); test: Radioligand binding assay; conditions: 10 μM; 37 °C, 120 min
[10] = target: Dopamine D3 (Homo sapiens, UniProt P35462); test: Radioligand binding assay; conditions: 10 μM; 37 °C, 120 min
[11] = target: Endothelin ETB (Homo sapiens, UniProt P24530); test: Radioligand binding assay; conditions: 10 μM; 25 °C, 120 min
[12] = target: Estrogen ERa (Homo sapiens, UniProt P03372); test: Radioligand binding assay; conditions: 10 μM; 25 °C, 120 min
[13] = target: Glucocorticoid (Homo sapiens, UniProt P04150); test: Radioligand binding assay; conditions: 10 μM; 25 °C, 120 min
[14] = tested on: Glutamate, NMDA, Agonism; test: Radioligand binding assay; parameters: species or system rat; conditions: 10 μM; 4 °C, 20 min
[15] = target: Histamine H1 (Homo sapiens, UniProt P35367); format: binding; conditions: 10 μM; 25 °C, 180 min
[16] = target: Histamine H3 (Homo sapiens, UniProt Q9Y5N1); test: Radioligand binding assay; conditions: 10 μM; 25 °C, 120 min
[17] = target: Leukotriene, Cysteinyl CysLT 1 (Homo sapiens, UniProt Q9Y271); test: Radioligand binding assay; conditions: 10 μM; 25 °C, 30 min
[18] = target: Melatonin MT1 (Homo sapiens, UniProt P48039); test: Radioligand binding assay; conditions: 10 μM; 25 °C, 180 min
[19] = target: Muscarinic M1 (Homo sapiens, UniProt P11229); format: binding; conditions: 10 μM; 25 °C, 120 min
[20] = target: Muscarinic M2 (Homo sapiens, UniProt P08172); test: Radioligand binding assay; conditions: 10 μM; 25 °C, 120 min
[21] = tested on: Nicotinic Acetylcholine; test: Radioligand binding assay; parameters: species or system human; conditions: 10 μM; 25 °C, 60 min
[22] = target: Opiate 51 (OP1, DOP) (Homo sapiens, UniProt P41143); test: Radioligand binding assay; conditions: 10 μM; 25 °C, 60 min
[23] = target: Platelet Activating Factor (PA F) (Homo sapiens, UniProt P25105); test: Radioligand binding assay; conditions: 10 μM; 25 °C, 180 min
[24] = tested on: Potassium Channel [KATP]; test: Radioligand binding assay; parameters: species or system human; conditions: 10 μM; 25 °C, 120 min
[25] = tested on: Purinergic P2,; test: Radioligand binding assay; parameters: species or system rat; conditions: 10 μM; 25 °C, 60 min
[26] = tested on: Rolipram; test: Radioligand binding assay; parameters: species or system rat; conditions: 10 μM; 4 °C, 60 min
[27] = target: Serotonin (5-Hydroxytryptam ine) 5-HT2B (Homo sapiens, UniProt P41595); test: Radioligand binding assay; conditions: 10 μM; 37 °C, 60 min
[28] = target: Transporter, GABA (Rattus norvegicus, UniProt P23978); test: Radioligand binding assay; conditions: 10 μM; 25 °C, 20 min
[29] = tested on: murine macrophage cell line RAW 264.7; test: Cytokine induction; format: cell-based; conditions: RAW 264.7 cells, graded doses overnight, ELISA (figure 1A)
[30] = format: in vivo, mice; conditions: for Body weight change after a single intravenous injection of the MTD: 150 mg/kg TMX-202 or 15 mg/kg IMQ i.v. (figure 4)

Dopamine D24, sequence (P14416 whole entry): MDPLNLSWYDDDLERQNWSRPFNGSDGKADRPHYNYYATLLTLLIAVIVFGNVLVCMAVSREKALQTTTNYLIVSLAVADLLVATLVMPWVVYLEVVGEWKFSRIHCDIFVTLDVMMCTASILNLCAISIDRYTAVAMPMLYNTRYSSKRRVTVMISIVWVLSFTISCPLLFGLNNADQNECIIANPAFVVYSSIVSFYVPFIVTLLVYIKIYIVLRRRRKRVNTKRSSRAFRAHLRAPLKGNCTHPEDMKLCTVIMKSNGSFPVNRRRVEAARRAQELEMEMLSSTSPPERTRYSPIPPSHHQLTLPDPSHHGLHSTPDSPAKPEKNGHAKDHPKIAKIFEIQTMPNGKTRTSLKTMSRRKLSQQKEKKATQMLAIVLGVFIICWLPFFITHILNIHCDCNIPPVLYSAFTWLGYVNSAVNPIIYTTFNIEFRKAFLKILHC
Muscarinic M2, sequence (P08172 whole entry): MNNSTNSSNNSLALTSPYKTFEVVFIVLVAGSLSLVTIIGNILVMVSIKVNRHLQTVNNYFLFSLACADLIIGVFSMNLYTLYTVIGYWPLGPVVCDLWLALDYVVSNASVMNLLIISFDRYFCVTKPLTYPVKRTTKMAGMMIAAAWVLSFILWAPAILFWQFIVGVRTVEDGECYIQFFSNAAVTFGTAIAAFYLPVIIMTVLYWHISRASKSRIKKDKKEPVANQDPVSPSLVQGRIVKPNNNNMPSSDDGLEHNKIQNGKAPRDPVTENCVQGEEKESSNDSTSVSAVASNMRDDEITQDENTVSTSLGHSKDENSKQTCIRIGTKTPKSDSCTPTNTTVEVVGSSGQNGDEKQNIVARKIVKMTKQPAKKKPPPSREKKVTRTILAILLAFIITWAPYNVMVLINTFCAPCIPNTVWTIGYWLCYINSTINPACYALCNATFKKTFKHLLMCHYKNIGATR
Leukotriene, Cysteinyl CysLT 1, sequence (Q9Y271 whole entry): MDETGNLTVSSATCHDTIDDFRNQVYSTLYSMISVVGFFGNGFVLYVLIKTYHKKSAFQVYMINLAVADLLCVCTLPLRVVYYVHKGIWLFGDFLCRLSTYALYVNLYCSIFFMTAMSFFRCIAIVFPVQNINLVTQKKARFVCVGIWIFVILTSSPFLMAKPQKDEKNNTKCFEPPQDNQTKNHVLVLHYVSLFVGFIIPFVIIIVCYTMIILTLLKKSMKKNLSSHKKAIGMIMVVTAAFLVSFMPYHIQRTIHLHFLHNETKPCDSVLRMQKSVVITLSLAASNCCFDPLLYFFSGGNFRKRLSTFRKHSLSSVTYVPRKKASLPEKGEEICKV
Histamine H3, sequence (Q9Y5N1 whole entry): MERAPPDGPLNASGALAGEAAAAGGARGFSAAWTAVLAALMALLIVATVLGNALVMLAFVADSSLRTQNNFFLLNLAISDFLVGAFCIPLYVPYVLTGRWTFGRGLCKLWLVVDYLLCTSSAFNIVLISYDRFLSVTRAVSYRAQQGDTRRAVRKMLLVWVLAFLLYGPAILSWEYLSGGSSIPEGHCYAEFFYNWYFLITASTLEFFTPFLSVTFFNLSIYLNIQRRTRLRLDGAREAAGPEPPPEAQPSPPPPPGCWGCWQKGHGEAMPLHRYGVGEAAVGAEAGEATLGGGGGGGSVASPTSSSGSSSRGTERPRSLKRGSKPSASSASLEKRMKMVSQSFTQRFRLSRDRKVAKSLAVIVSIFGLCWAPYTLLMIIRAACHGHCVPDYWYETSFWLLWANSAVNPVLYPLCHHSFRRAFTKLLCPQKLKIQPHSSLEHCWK
Histamine H1, sequence (P35367 whole entry): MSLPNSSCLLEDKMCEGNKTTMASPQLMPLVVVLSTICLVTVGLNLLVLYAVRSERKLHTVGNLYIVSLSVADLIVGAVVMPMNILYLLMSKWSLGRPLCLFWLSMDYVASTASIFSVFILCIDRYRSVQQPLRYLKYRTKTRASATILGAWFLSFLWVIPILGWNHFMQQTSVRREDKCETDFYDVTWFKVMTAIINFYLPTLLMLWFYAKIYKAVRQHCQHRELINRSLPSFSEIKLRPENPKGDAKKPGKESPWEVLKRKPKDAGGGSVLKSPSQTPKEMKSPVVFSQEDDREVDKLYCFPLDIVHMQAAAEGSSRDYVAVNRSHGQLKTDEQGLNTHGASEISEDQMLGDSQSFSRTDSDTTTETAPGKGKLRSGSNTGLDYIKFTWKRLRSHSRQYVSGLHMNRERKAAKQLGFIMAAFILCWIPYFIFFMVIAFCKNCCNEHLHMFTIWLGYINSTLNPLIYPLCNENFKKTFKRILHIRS
Serotonin (5-Hydroxytryptam ine) 5-HT2B, sequence (P41595 whole entry): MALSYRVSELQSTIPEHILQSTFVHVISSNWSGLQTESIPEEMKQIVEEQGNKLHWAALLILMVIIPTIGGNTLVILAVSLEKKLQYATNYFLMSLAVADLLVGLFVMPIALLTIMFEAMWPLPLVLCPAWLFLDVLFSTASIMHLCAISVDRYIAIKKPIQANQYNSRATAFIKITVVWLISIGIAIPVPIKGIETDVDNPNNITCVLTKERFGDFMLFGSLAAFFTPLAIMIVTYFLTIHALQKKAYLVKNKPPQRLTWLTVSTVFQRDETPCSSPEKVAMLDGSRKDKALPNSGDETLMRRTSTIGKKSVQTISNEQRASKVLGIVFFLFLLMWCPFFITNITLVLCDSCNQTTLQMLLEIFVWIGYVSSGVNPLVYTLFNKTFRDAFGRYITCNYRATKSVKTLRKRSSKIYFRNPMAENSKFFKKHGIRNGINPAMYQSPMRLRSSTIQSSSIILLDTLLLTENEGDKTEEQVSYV
Opiate 51 (OP1, DOP), sequence (P41143 whole entry): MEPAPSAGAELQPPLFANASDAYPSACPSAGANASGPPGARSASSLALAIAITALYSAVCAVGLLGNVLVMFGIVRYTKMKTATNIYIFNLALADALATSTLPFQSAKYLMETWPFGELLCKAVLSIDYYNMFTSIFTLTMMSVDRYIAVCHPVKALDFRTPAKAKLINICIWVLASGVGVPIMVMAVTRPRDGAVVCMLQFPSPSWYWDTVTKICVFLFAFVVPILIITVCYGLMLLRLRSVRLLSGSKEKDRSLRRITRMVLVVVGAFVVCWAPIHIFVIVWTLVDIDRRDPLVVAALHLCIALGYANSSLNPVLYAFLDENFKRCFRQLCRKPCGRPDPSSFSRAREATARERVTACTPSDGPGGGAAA
Melatonin MT1, sequence (P48039 whole entry): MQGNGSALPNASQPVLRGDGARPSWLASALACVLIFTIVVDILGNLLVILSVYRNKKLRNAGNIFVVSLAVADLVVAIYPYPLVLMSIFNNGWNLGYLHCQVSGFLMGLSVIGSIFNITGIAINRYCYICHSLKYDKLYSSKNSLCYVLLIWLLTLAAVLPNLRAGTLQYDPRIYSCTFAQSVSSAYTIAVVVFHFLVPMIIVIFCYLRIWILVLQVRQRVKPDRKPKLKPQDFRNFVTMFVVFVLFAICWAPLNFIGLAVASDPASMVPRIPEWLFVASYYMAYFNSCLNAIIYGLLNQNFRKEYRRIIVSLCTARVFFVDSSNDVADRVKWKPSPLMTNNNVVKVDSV
Dopamine D3, sequence (P35462 whole entry): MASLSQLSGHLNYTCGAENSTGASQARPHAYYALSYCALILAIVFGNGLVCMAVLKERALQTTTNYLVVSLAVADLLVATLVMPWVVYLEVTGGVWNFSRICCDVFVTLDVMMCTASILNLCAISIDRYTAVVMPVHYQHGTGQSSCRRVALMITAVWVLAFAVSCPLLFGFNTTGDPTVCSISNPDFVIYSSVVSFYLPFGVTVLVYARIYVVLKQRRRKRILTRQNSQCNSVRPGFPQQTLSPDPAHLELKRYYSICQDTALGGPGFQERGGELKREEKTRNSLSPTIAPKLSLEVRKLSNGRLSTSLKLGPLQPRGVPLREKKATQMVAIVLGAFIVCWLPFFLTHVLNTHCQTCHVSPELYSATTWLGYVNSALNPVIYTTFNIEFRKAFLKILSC
CYP450, 3A4, sequence (P08684 whole entry): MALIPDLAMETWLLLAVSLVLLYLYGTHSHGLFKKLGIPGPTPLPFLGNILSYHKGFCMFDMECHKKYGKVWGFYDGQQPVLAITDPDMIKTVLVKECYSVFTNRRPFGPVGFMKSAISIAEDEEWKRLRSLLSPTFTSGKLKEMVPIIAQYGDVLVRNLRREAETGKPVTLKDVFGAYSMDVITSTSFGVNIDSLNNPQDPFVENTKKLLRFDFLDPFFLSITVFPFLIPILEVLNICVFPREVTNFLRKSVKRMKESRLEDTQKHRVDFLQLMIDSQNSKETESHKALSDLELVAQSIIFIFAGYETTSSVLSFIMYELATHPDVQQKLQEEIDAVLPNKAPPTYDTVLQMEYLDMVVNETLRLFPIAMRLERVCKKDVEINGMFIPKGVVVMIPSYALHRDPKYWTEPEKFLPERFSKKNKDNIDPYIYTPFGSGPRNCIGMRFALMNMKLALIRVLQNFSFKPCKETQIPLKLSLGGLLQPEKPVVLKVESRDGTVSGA

For CCCCCCCCCCCC(=O)OC[C@@H](COP(=O)(O)OCCNC(=O)c1ccc(Cn2c(=O)[nH]c3c(N)nc(OCCOC)nc32)cc1)OC(=O)CCCCCCCCCCC [TMX-202], which “Percent inhibition of enzyme activity” value [1] is on record?
Its value is −4%.

And the “Percent inhibition of enzyme activity” value [2]?
Its value is −1%.

And the “Percent inhibition of specific radioligand binding” value [3]?
The value was 10%.

What about the “Percent inhibition of specific radioligand binding” value [4] of the same molecule?
The value was −8%.

What about the “Percent inhibition of specific radioligand binding” value [5] of the same molecule?
Its value is 0%.

And the “Percent inhibition of specific radioligand binding” value [6]?
The value was 3%.

What about the “Percent inhibition of specific radioligand binding” value [7] of the same molecule?
The value was 3%.

What about the “Percent inhibition of specific radioligand binding” value [8] of the same molecule?
The value was 1%.

And the “Percent inhibition of specific radioligand binding” value [9]?
Its value is 25%.

What about the “Percent inhibition of specific radioligand binding” value [10] of the same molecule?
The value was 15%.

What about the “Percent inhibition of specific radioligand binding” value [11] of the same molecule?
Its value is −7%.

And the “Percent inhibition of specific radioligand binding” value [12]?
Its value is 7%.

And the “Percent inhibition of specific radioligand binding” value [13]?
The value was −1%.

What about the “Percent inhibition of specific radioligand binding” value [14] of the same molecule?
The value was 10%.

What about the “Percent inhibition of specific radioligand binding” value [15] of the same molecule?
The value was −6%.

What about the “Percent inhibition of specific radioligand binding” value [16] of the same molecule?
Its value is −14%.

And the “Percent inhibition of specific radioligand binding” value [17]?
The value was 10%.

And the “Percent inhibition of specific radioligand binding” value [18]?
The value was 3%.

And the “Percent inhibition of specific radioligand binding” value [19]?
Its value is 0%.

And the “Percent inhibition of specific radioligand binding” value [20]?
The value was 0%.

What about the “Percent inhibition of specific radioligand binding” value [21] of the same molecule?
Its value is 9%.

What about the “Percent inhibition of specific radioligand binding” value [22] of the same molecule?
Its value is 5%.

What about the “Percent inhibition of specific radioligand binding” value [23] of the same molecule?
Its value is 33%.

What about the “Percent inhibition of specific radioligand binding” value [24] of the same molecule?
Its value is 8%.

What about the “Percent inhibition of specific radioligand binding” value [25] of the same molecule?
Its value is 8%.

What about the “Percent inhibition of specific radioligand binding” value [26] of the same molecule?
The value was 21%.

What about the “Percent inhibition of specific radioligand binding” value [27] of the same molecule?
Its value is 1%.

What about the “Percent inhibition of specific radioligand binding” value [28] of the same molecule?
Its value is 1%.

What about the “Potency of mTNFα induction compared with IMQ” value [29] of the same molecule?
The value was “more potent cytokine inducer”.

What about the “MTD (molar)” value ([30]; C57BL/6 mice, intravenous administration) of the same molecule?
The value was “approximately 163 μmoles/kg”.

What about the “Body weight change after a single intravenous injection of the MTD” value ([30]; Tlr7−/− or Myd88−/− mice) of the same molecule?
Its value is “no significant body weight loss”.

And the “Body weight change after a single intravenous injection of the MTD” value ([30]; WT mice)?
The value was “significant reduction in body weight”.
